Data reported in US5981586A, “Methods for treating proliferative and inflammatory skin diseases” (priority 1998, dated 1999).
Entries after “also recorded” stand apart in the source; their conditions may differ. Read-outs that look alike come from different tables or passages of the source.

How the values were obtained:
[1] = tested on: human keratinocytes; test: Proliferation of adult human keratinocytes in culture (neutral red dye assay, 4 days); assay type: cell-based
Experimental: The use of proliferating human keratinocytes in culture as a test system for determining the utility of a compound for treating hyperproliferative and inflammatory disorders of the skin is well documented (Kitanot et at., Euro. J Clin. Investig. 21:53-58 (1991) and West, et at., J. Investigative Derm. 99(1):95-100 (1992).)
Cell number was assessed at time zero (before treatment) and at the end of the treatment period by the neutral red dye assay. See Kitano, et at., Euro. J. Clin. Investig. 21:53-58 (1991) and West, et at., J. Investigative Derm. 99(1):95-100 (1992). Each condition was performed in 12 replicates, on keratinocytes from three subjects and the results were combined from the three subjects. […] The coordinate plots the cell growth of the keratinocytes as the percentage of controls.

[2] = tested on: PPARγ; details: cited from earlier work
[3] = tested on: human keratinocytes; test: Proliferation of human keratinocytes by PMS/MTS (CellTiter 96 AQueous) assay; assay type: cell-based
Text: Inhibition of proliferating human keratinocytes in culture have been utilized as a system for screening and identifying potential therapeutic agents such as vitamin D derivatives (Kitano et at., 1991) and retinoids (West et at., 1992), for the treatment of inflammatory, proliferative skin diseases (e.g., psoriasis vulgaris, acne vulgaris, hidradenitis suppurativa).
Human keratinocytes were obtained from Clonetics (San Diego, California) and subcultured into a proprietary (Clonetics) medium optimized for cell growth and maintenance. Proliferation of keratinocytes was determined using MTS, 3-(4,5-dimethylthiazol-2-yl)-5-(3-carboxymethoxyphenyl)-2-(4-sulfophen 1)-2H-tetrazolium (PMS/MTS) as described in the CellTiter 96 AQueous Non-Radioactive Cell Proliferation Assay (Promega Inc.). Only viable cells reduce MTS to the soluble formazan, and viable cell numbers correlate with optical density (Cory et at., 1991).
Cells were seeded at 2 to 4×10^4 cells/ml of growth medium in 24 well microtiter plates. Twenty-four hours post-plating cells were treated with vehicle alone (0.1% DMSO) or various concentrations of 15-deoxy-PG J2 was added to each well (quadruplicate samples per concentration) for an additional 4 days. At each time point 100 ul of the PMS/MTS assay mix is added and absorbance at 490 nm was recorded four hours later with a microplate spectrophotometer (BioTek Instrument Co).

[4] = tested on: PPARγ; details: cited from earlier work; remark: listed apart in the source

**Q.** Which “inhibition of keratinocyte proliferation (in words)” value ([1]; 0.1, 1.0 and 10 μM, 4 days, compared with vehicle 0.1% DMSO) does the source give for `Cc1c(C)c2c(c(C)c1O)CCC(C)(COc1ccc(CC3SC(=O)NC3=O)cc1)O2` (stereo not shown) [troglitazone] here?
**A.** dose-dependent inhibition of keratinocyte proliferation; also recorded: dose-dependent and saturable; also recorded: dose response inhibition of cell growth

**Q.** What about the IC50 ([1]; Homo sapiens, Keratinocyte, 96 h, read-out: IC50, antiproliferative effect in human keratinocytes) of the same compound?
**A.** 2.1 µM

**Q.** For `CCOC(=O)C(C)(C)Oc1ccc(Cl)cc1` [clofibrate], which “activation of PPARγ (in words)” value [2] is on record?
**A.** known to activate PPARγ

**Q.** Which inhibition at 2 µM ([3]; Homo sapiens, Keratinocyte, 96 h, 2 uM, 4 days) does the source give for `CCCCCC=CC=C1C(=O)C=CC1CC=CCCCC(=O)O` (stereo not shown) [15-deoxy-PG J2, 15-deoxy-A-12,14-prostaglandin J2] here?
**A.** 22%

**Q.** And the inhibition at 4 µM ([3]; Homo sapiens, Keratinocyte, 96 h, 4 uM, 4 days)?
**A.** 51%

**Q.** What about the inhibition at 8 µM ([3]; Homo sapiens, Keratinocyte, 96 h, 8 uM, 4 days) of the same compound?
**A.** 76%

**Q.** What about the inhibition at 20 µM ([3]; Homo sapiens, Keratinocyte, 96 h, 20 uM, 4 days) of the same compound?
**A.** 100%

**Q.** And the IC50 ([3]; Keratinocyte, 96 h, human keratinocytes, 4 days treatment, read-out: concentration for half-maximal inhibition of growth (IC50))?
**A.** ~4 µM

**Q.** And the “% inhibition of proliferation of human keratinocytes” value ([3]; concentration not printed in the line (first line of Table 1), 4 days)?
**A.** 5%

**Q.** What about the “inhibition of proliferation of human keratinocytes (in words)” value ([3]; cultured human keratinocytes, 4 days) of the same compound?
**A.** inhibits the proliferation of human keratinocytes in culture; also recorded: dose-dependent inhibition of proliferation

**Q.** What about the “activation of PPARγ (in words)” value [4] of the same compound?
**A.** activate PPARγ to varying degrees

**Q.** With `CC(C)(Oc1ccc(C2CC2(Cl)Cl)cc1)C(=O)O` (stereo not shown) [ciprofibrate] as the compound, how does the “activation of PPARγ (in words)” value [2] read?
**A.** known to activate PPARγ

**Q.** With `CC(C)(Oc1ccc(CCNC(=O)c2ccc(Cl)cc2)cc1)C(=O)O` [bezofibrate] as the compound, how does the “activation of PPARγ (in words)” value [2] read?
**A.** known to activate PPARγ
